How the values were obtained:
[1] = system: ZR-75-1 Tam1; experiment: drug sensitivity score (DSS) (DSS (dimensionless)); higher = more sensitive; extreme values may be limits of the assay; settings: 4-OH-tamoxifen in medium 1 µM; 72 h
Procedure: (§1)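 FIMM FO2B library drugs were tested at 5 concentrations (10,000-fold range) for 72 h, with CellTiter-Glo viability normalised to DMSO and benzethonium chloride controls. The Drug Sensitivity Score (DSS) is computed from the fitted logistic dose-response curve (area-based; 0 = inactive). Resistant lines and the 'in 1µM tamoxifen' arms were tested in 1 µM 4-OH-tamoxifen.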

[2] = system: T-47D; experiment: as above; settings: 72 h
Procedure: as §1

[3] = system: ZR-75-1; experiment: as above; settings: 72 h
Procedure: as §1

[4] = system: T-47D Tam1; experiment: as above; settings: 4-OH-tamoxifen in medium 1 µM; 72 h
Procedure: as §1

[5] = system: MCF-7 Tam1; experiment: as above; settings: 4-OH-tamoxifen in medium 1 µM; 72 h
Procedure: as §1

[6] = system: ZR-75-1 Tam2; experiment: as above; settings: 4-OH-tamoxifen in medium 1 µM; 72 h
Procedure: as §1

[7] = system: MCF-7; experiment: as above; settings: 72 h
Procedure: as §1

[8] = system: BT-474 Tam2; experiment: as above; settings: 4-OH-tamoxifen in medium 1 µM; 72 h
Procedure: as §1

[9] = system: T-47D Tam2; experiment: as above; settings: 4-OH-tamoxifen in medium 1 µM; 72 h
Procedure: as §1

[10] = system: BT-474; experiment: as above; settings: 72 h
Procedure: as §1

[11] = system: BT-474 Tam1; experiment: as above; settings: 4-OH-tamoxifen in medium 1 µM; 72 h
Procedure: as §1

[12] = system: ZR-75-1 Tam1; experiment: relative IC50 (midpoint of fitted logistic curve, plateau may be below 50% inhibition; CellTiter-Glo viability); higher = less potent; settings: 4-OH-tamoxifen in medium 1 µM; 72 h
Method in brief: (§2)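 Drug sensitivity score, relative IC50 as the curve midpoint, and top-dose inhibition were derived from logistic dose–response fits in the Breeze pipeline. These fits used CellTiter-Glo viability, read on a PHERAstar and normalised to vehicle-only and positive controls. Breast cancer cell lines and resistant derivatives had been incubated for 72 h at 37 °C in 384-well plates holding library drugs at five concentrations spanning a 10 000-fold range. Resistant lines were grown in medium with 1 μM of the selecting drug.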

[13] = system: T-47D; experiment: as above; settings: 72 h
Method in brief: as §2

[14] = system: T-47D Tam1; experiment: as above; settings: 4-OH-tamoxifen in medium 1 µM; 72 h
Method in brief: as §2

[15] = system: MCF-7; experiment: as above; settings: 72 h
Method in brief: as §2

[16] = system: BT-474 Tam2; experiment: as above; settings: 4-OH-tamoxifen in medium 1 µM; 72 h
Method in brief: as §2

[17] = system: T-47D Tam2; experiment: as above; settings: 4-OH-tamoxifen in medium 1 µM; 72 h
Method in brief: as §2

[18] = system: BT-474; experiment: as above; settings: 72 h
Method in brief: as §2

[19] = system: BT-474 Tam1; experiment: as above; settings: 4-OH-tamoxifen in medium 1 µM; 72 h
Method in brief: as §2

[20] = system: ZR-75-1; experiment: as above; settings: 72 h
Method in brief: as §2

[21] = system: ZR-75-1 Tam2; experiment: as above; settings: 4-OH-tamoxifen in medium 1 µM; 72 h
Method in brief: as §2

Structure (SMILES) | drug sensitivity score [1] | drug sensitivity score ([2]; 4-OH-tamoxifen in medium 0 µM) | drug sensitivity score ([2]; 4-OH-tamoxifen in medium 1 µM) | drug sensitivity score ([3]; 4-OH-tamoxifen in medium 0 µM) | drug sensitivity score ([3]; 4-OH-tamoxifen in medium 1 µM) | drug sensitivity score [4] | drug sensitivity score [5] | drug sensitivity score [6] | drug sensitivity score ([7]; 4-OH-tamoxifen in medium 0 µM) | drug sensitivity score ([7]; 4-OH-tamoxifen in medium 1 µM) | drug sensitivity score [8] | drug sensitivity score [9] | drug sensitivity score ([10]; 4-OH-tamoxifen in medium 0 µM) | drug sensitivity score ([10]; 4-OH-tamoxifen in medium 1 µM) | drug sensitivity score [11] | relative IC50 [12] [nM] | relative IC50 ([13]; 4-OH-tamoxifen in medium 1 µM) [nM] | relative IC50 [14] [nM] | relative IC50 ([15]; 4-OH-tamoxifen in medium 0 µM) [nM] | relative IC50 ([15]; 4-OH-tamoxifen in medium 1 µM) [nM] | relative IC50 [16] [nM] | relative IC50 [17] [nM] | relative IC50 ([18]; 4-OH-tamoxifen in medium 0 µM) [nM] | relative IC50 ([18]; 4-OH-tamoxifen in medium 1 µM) [nM] | relative IC50 [19] [nM] | relative IC50 ([13]; 4-OH-tamoxifen in medium 0 µM) [nM] | relative IC50 ([20]; 4-OH-tamoxifen in medium 0 µM) [nM] | relative IC50 [21] [nM] | relative IC50 ([20]; 4-OH-tamoxifen in medium 1 µM) [nM]
O=c1[nH]cc(F)c(=O)[nH]1 [Fluorouracil] | 0 | 0.0675 | 0 | 1.39 | 0.596 | 0 | 0 | 3.05 | 2.93 | 0 | 0 | 0 | 0 | 0 | 0 | > 10000 | > 10000 | > 10000 | 1430 | > 10000 | > 10000 | > 10000 | > 10000 | > 10000 | > 10000 |  |  |  | 
Cc1ccc(NC(=O)c2ccc(CN3CCN(C)CC3)cc2)cc1Nc1nc(-c2cccnc2)cs1 [Masitinib] | 0.886 | 1.85 | 2.81 | 0 | 0.352 | 2.68 | 1.1 | 1.85 | 3.51 | 1.67 | 5.8 | 1.99 | 0.359 | 3.44 | 4.94 |  | 3460 | 1780 | 1540 | 3770 | 2570 | 3230 |  | 3640 | 3350 | 3570 | > 10000 | 2580 | 
Nc1ccccc1NC(=O)c1ccc(CNc2nccc(-c3cccnc3)n2)cc1 [Mocetotinostat (MGCD0103)] | 2.33 | 4.36 | 4.03 | 1.76 | 1.86 | 6.2 | 0.799 | 2.62 | 6.98 | 4.99 | 8.98 | 3.42 | 5.13 | 9.43 | 7.26 |  | 3220 | 688 | 1760 | 2000 | 1210 | 1390 | 2060 | 1380 | 2150 | 3290 | 2720 | 1480 | 
CCS(=O)(=O)c1cccc(-c2cc(C(=O)NC3CCN(C)CC3)c(C)c3[nH]c4ncc(C)cc4c23)c1 [TAK-901] | 0 | 3.25 | 0.53 | 0 | 0 | 6.67 | 0 | 0 | 0.354 | 2.84 | 2.87 | 2.96 | 0 | 3.36 | 1.12 | > 1000 |  | 138 |  |  |  | 93.3 | > 1000 | 90.5 | 371 | 182 | > 1000 | > 1000 | > 1000
Nc1nc2[nH]cnc2c(=S)[nH]1 [Thioguanine] | 3.48 | 1.83 | 0.681 | 4.81 | 1.76 | 2.75 | 1.96 | 2.86 | 4.8 | 4.57 | 0.61 | 2.48 | 0.0001 | 1.03 | 0.758 | 1420 |  | 3070 | 1750 | 1350 |  | 2660 |  |  |  | 3040 | 1080 | 1440 | 2690
CC(C)C[C@@H](C(=O)N[C@H](C(=O)OC1CCCC1)c1ccccc1)[C@H](O)C(=O)NO [Tosedostat (CHR 2797)] | 2.61 | 1.5 | 0.354 | 4.86 | 3.37 | 5.48 | 0 | 5.85 | 3.93 | 3.62 | 1.07 | 5.12 | 4 | 5.75 | 3.46 | 829 |  | 768 | 939 | 1350 |  | 850 |  | 1250 | 1190 | 3240 |  | 242 | 
O=C(CCCCCCC(=O)Nc1ccc([C@H]2O[C@@H](CSc3nc(-c4ccccc4)c(-c4ccccc4)o3)C[C@@H](c3ccc(CO)cc3)O2)cc1)NO [Tubacin] | 1.41 | 2.87 | 4.31 | 0.333 | 0.912 | 3.65 | 0.69 | 0.331 | 5.52 | 5.63 | 1.25 | 1.62 | 1.29 | 4.44 | 0.976 | 3350 | 3710 | 1840 | 1360 | 1860 | 3840 | 3710 |  | 3380 |  | 3430 |  |  | 
CC[C@]1(O)C[C@H]2CN(CCc3c([nH]c4ccccc34)[C@@](C(=O)OC)(c3cc4c(cc3OC)N(C=O)[C@H]3[C@@](O)(C(=O)OC)[C@H](OC(C)=O)[C@]5(CC)C=CCN6CC[C@]43[C@@H]65)C2)C1 [Vincristine] | 7.19 | 13.8 | 6.49 | 17.3 | 10.9 | 19.3 | 0.209 | 8.05 | 19.1 | 16.8 | 30.8 | 17.3 | 21.4 | 31.3 | 30.7 |  | 88.1 | 38.5 | 24.9 | 26.5 | 14.2 | 26.8 | 2.33 | 11.9 | 20.9 | 4.41 | 3.69 | 116 | 21.5
CS(=O)(=O)c1ccc(C(=O)Nc2ccc(Cl)c(-c3ccccn3)c2)c(Cl)c1 [Vismodegib] | 0 | 0 | 0 | 0 | 0 | 0 | 0 | 0 | 0 | 0 | 0 | 0 | 0 | 0 | 0.264 | > 10000 | > 10000 | > 10000 | > 10000 | > 10000 | > 10000 | > 10000 | > 10000 | > 10000 |  | > 10000 | > 10000 |  | > 10000
